Source: patent publication US20230233576A1, “ECLITASERTIB FOR USE IN TREATING CONDITIONS INVOLVING SYSTEMIC HYPERINFLAMMATORY RESPONSE” (priority 2020, published 2023)
Like-named read-outs stand apart in the source and are kept apart here.

Columns and labels:
[1] = system: peripheral cytokine and biomarker levels; assay: Phase 1b severe COVID-19 study: peripheral cytokine and biomarker levels; format: in vivo, human
From the text: The biomarker variables included pro-inflammatory cytokines (such as IL 4, IL-6, IL-10, IL-17, TNFα, and IFNγ) and RIPK1 PD cytokines/chemokines (such as MIP1α and MIP1β) that are elevated in participants with SARS-CoV-2.
The exploratory PD/biomarker endpoint was the change from baseline in peripheral cytokine and biomarker levels up to EOT.
Each analyte was selected, and the assay analytically validated based on reports in the literature and in-house research.

[2] = Phase 1b severe COVID-19 study: pharmacokinetics (plasma concentrations, Bayesian population PK); format: in vivo, human; conditions: for AUC(0-t) / Cmax: human, oral, 300 mg
Experimental: RIPK1 Inhibitor concentrations at selected time points over the two weeks of treatment were summarized by descriptive statistics. PK parameters such as Cmax, tmax, and AUC were calculated by a Bayesian analysis: the main results are presented in Section 5.2.
Descriptive statistics on plasma concentration of RIPK1 Inhibitor were analyzed by the Sponsor's Biostatistics Department.
Plasma concentrations of RIPK1 Inhibitor was listed and summarized by arithmetic mean, geometric mean, standard deviation (SD), standard error of the mean (SEM), coefficient of variance (%) (CV), minimum, median, maximum, and number of observations by timepoints. When applicable, relevant data were summarized by route: i.e., oral and oral gavage, and timepoints.
The pharmacokinetic parameters in participants with severe COVID-19 were assessed by Bayesian analysis using a POP population PK model (P0H0757) developed in other Phase 1 studies.
PK parameters were determined for 46 participants (one participant was excluded because all plasma concentrations were BLOQ). A summary of descriptive statistics on RIPK1 Inhibitor plasma AUC0-12, Cmax, and Ctrough over 2 weeks of treatment are presented in Table 43.

[3] = 600 mg, Day 7, not statistically significant
[4] = Day 7 vs baseline, LOCF, Safety population

CN1C(=O)[C@@H](NC(=O)c2nnc(Cc3ccccc3)[nH]2)COc2cccnc21 [RIPK1 Inhibitor, (S)-5-benzyl-N-(5-methyl-4-oxo-2,3,4,5-tetrahydropyrido[3,2-b][1,4]oxazepin-3-yl)-4H-1,2,4-triazole-3-carboxamide]
chemokine (C-X-C Motif) Ligand 10, ratio of relatives changes (RIPK1 Inhibitor versus placebo) [1, 3]: 0.7 | monocyte chemotactic protein 1, ratio of fold changes between RIPK1 Inhibitor and placebo [1, 3]: 0.85 | Chemokine (C-C Motif) Ligand 13 (pg/mL): RIPK1 Inhibitor 600 mg vs Placebo Fold-Change ([1]; Day 7, LOCF, Safety population): 1.15 (60) | Chemokine (C-X-C Motif) Ligand 10 (pg/mL): RIPK1 Inhibitor 600 mg vs Placebo Fold-Change ([1]; Day 7, LOCF, Safety population): 0.7 (56) | Eotaxin-1 (pg/mL): RIPK1 Inhibitor 600 mg vs Placebo Fold-Change ([1]; Day 7, LOCF, Safety population): 1.03 (65) | Interferon Gamma (pg/mL): RIPK1 Inhibitor 600 mg vs Placebo Fold-Change ([1]; Day 7, LOCF, Safety population): 1.03 (66) | Interleukin 6 (pg/mL): RIPK1 Inhibitor 600 mg vs Placebo Fold-Change ([1]; Day 7, LOCF, Safety population): 0.63 (66) | Interleukin 8 - Cytokines (pg/mL): RIPK1 Inhibitor 600 mg vs Placebo Fold-Change ([1]; Day 7, LOCF, Safety population): 0.8 (66) | Interleukin 10 (pg/mL): RIPK1 Inhibitor 600 mg vs Placebo Fold-Change ([1]; Day 7, LOCF, Safety population): 0.82 (66) | Macrophage Inflammatory Protein 1 Beta (pg/mL): RIPK1 Inhibitor 600 mg vs Placebo Fold-Change ([1]; Day 7, LOCF, Safety population): 0.85 (60) | Macrophage-Derived Chemokine (pg/mL): RIPK1 Inhibitor 600 mg vs Placebo Fold-Change ([1]; Day 7, LOCF, Safety population): 1.2 (60) | Monocyte Chemotactic Protein 1 (pg/mL): RIPK1 Inhibitor 600 mg vs Placebo Fold-Change ([1]; Day 7, LOCF, Safety population): 0.85 (60) | Ratio of Interleukin 6 and Interleukin 10 (RATIO): RIPK1 Inhibitor 600 mg vs Placebo Fold-Change ([1]; Day 7, LOCF, Safety population): 0.86 (66) | Tumor Necrosis Factor alpha (pg/mL): RIPK1 Inhibitor 600 mg vs Placebo Fold-Change ([1]; Day 7, LOCF, Safety population): 0.98 (66) | okine (C-C Motif) Ligand 17: RIPK1 Inhibitor 600 mg vs Placebo Fold-Change ([1]; Day 7, LOCF, Safety population): 1 (60) | Chemokine (C-C Motif) Ligand 13 (pg/mL): RIPK1 Inhibitor 600 mg Fold-Change [1, 4]: 1.31 (41) | Chemokine (C-X-C Motif) Ligand 10 (pg/mL): RIPK1 Inhibitor 600 mg Fold-Change [1, 4]: 0.26 (37) | Eotaxin-1 (pg/mL): RIPK1 Inhibitor 600 mg Fold-Change [1, 4]: 1.21 (45) | Interferon Gamma (pg/mL): RIPK1 Inhibitor 600 mg Fold-Change [1, 4]: 0.44 (47) | Interleukin 6 (pg/mL): RIPK1 Inhibitor 600 mg Fold-Change [1, 4]: 0.4 (47) | Interleukin 8 - Cytokines (pg/mL): RIPK1 Inhibitor 600 mg Fold-Change [1, 4]: 0.71 (47) | Interleukin 10 (pg/mL): RIPK1 Inhibitor 600 mg Fold-Change [1, 4]: 0.48 (47) | Macrophage Inflammatory Protein 1 Beta (pg/mL): RIPK1 Inhibitor 600 mg Fold-Change [1, 4]: 1.07 (41) | Macrophage-Derived Chemokine (pg/mL): RIPK1 Inhibitor 600 mg Fold-Change [1, 4]: 1.05 (41) | Monocyte Chemotactic Protein 1 (pg/mL): RIPK1 Inhibitor 600 mg Fold-Change [1, 4]: 0.69 (41) | Ratio of Interleukin 6 and Interleukin 10 (RATIO): RIPK1 Inhibitor 600 mg Fold-Change [1, 4]: 0.87 (47) | Tumor Necrosis Factor alpha (pg/mL): RIPK1 Inhibitor 600 mg Fold-Change [1, 4]: 0.85 (47) | okine (C-C Motif) Ligand 17: RIPK1 Inhibitor 600 mg Fold-Change [1, 4]: 1.56 (41) | steady state reached on ([2]; 300 mg BID for up to 14 days, severe COVID-19): 3 days | exposure difference between male and female ([2]; 300 mg BID, severe COVID-19): No obvious exposure difference | higher AUC0-12h in patients<85.6 kg as compared to ≥85.6 kg ([2]; 300 mg BID, severe COVID-19): 14% | Ctrough, mean (SD) ([2]; 300 mg BID, steady state (Day 3), plasma, severe COVID-19, Bayesian population PK): 2025 (783) ng/mL | Ctrough ([2]; Day 1 (n = 46), Mean (SD), 300 mg BID, plasma, participants with severe COVID-19, Bayesian population PK analysis): 1457 (442) ng/mL | Ctrough ([2]; Day 3 (n = 42), Mean (SD), 300 mg BID, plasma, participants with severe COVID-19, Bayesian population PK analysis): 2025 (783) ng/mL | Ctrough ([2]; Day 7 (n = 26), Mean (SD), 300 mg BID, plasma, participants with severe COVID-19, Bayesian population PK analysis): 2142 (838) ng/mL | Ctrough ([2]; Day 14 (n = 10), Mean (SD), 300 mg BID, plasma, participants with severe COVID-19, Bayesian population PK analysis): 2524 (875) ng/mL | AUC(0-t) ([2]; plasma, 300 mg BID, steady state (Day 3), plasma, severe COVID-19, Bayesian population PK, read-out: AUC0-12h, mean (SD)): 42200 ng·h/mL | Cmax ([2]; plasma, 300 mg BID, steady state (Day 3), plasma, severe COVID-19, Bayesian population PK, read-out: Cmax, mean (SD)): 5170 ng/mL | AUC(0-t) ([2]; plasma, Day 1 (n = 46), Mean (SD), 300 mg BID, plasma, participants with severe COVID-19, Bayesian population PK analysis, read-out: AUC0-12): 28200 ng·h/mL | Cmax ([2]; plasma, Day 1 (n = 46), Mean (SD), 300 mg BID, plasma, participants with severe COVID-19, Bayesian population PK analysis, read-out: Cmax): 3680 ng/mL | AUC(0-t) ([2]; plasma, Day 3 (n = 42), Mean (SD), 300 mg BID, plasma, participants with severe COVID-19, Bayesian population PK analysis, read-out: AUC0-12): 42200 ng·h/mL | Cmax ([2]; plasma, Day 3 (n = 42), Mean (SD), 300 mg BID, plasma, participants with severe COVID-19, Bayesian population PK analysis, read-out: Cmax): 5170 ng/mL | AUC(0-t) ([2]; plasma, Day 7 (n = 26), Mean (SD), 300 mg BID, plasma, participants with severe COVID-19, Bayesian population PK analysis, read-out: AUC0-12): 43800 ng·h/mL | Cmax ([2]; plasma, Day 7 (n = 26), Mean (SD), 300 mg BID, plasma, participants with severe COVID-19, Bayesian population PK analysis, read-out: Cmax): 5340 ng/mL | AUC(0-t) ([2]; plasma, Day 14 (n = 10), Mean (SD), 300 mg BID, plasma, participants with severe COVID-19, Bayesian population PK analysis, read-out: AUC0-12): 48400 ng·h/mL | Cmax ([2]; plasma, Day 14 (n = 10), Mean (SD), 300 mg BID, plasma, participants with severe COVID-19, Bayesian population PK analysis, read-out: Cmax): 5630 ng/mL
